Results: US9492405B2, “Use of fenoterol and fenoterol analogues in the treatment of glioblastomas and astrocytomas” (The United States of America, as represented by the …, priority 2010, dated 2016)
Where “and” joins values, the source holds several entries; their conditions need not be identical. Identical values can stand only once.

Test: in vivo
Details: rat; for Individual plasma concentration: listed as (R,S)-naphthylfenoterol, fumarate
Experimental: Dose calculations (mg/kg) were based on the individual body weight measured on the day of treatment. Study duration for pharmacokinetic studies was 6 hours. […] Urine was collected for 0-6 hours and 6 to 24 hours from 3 rats in each treatment group.
In the two-compartment model, the drug distributes into two compartments, the central compartment and the tissue, or peripheral compartment. The central compartment represents the blood, extracellular fluid, and highly perfused tissues. The drug distributes rapidly and uniformly in the central compartment. A second compartment, known as the tissue or peripheral compartment, contains tissues in which the drug equilibrates more slowly. Drug transfer between the two compartments is assumed to take place by first-order processes.
The following abbreviations are utilized in Table 4 below: alpha—macro rate constant associated with the distribution phase; beta—macro rate constant associated with the elimination phase; A, B—zero time intercept associated with the alpha phase and beta phase, respectively; AUC—area under the curve; T1/2 (K10)—half-life associated with the rate constant K10; K10—elimination rate—rate at which the drug leaves the system from the central compartment; K12—rate at which drug enters tissue compartment from the central compartment; K21—rate at which drug enters central compartment from tissue compartment; V1—volume of distribution of the central compartment; V2—volume of distribution of the tissue compartment; Vss—volume of distribution at steady state; and Cl—clearance.

[1] = male, Sprague-Dawley, plasma, iv, 5 mg/kg
[2] = male, Sprague-Dawley, plasma, iv, 5 mg/kg, Individual plasma concentration, IV 5 mg/kg, individual rats
[3] = male, Sprague-Dawley, plasma, iv, 5 mg/kg, Plasma concentration, Average, IV 5 mg/kg
[4] = IV 5 mg/kg, two-compartment open model

## C[C@@H](Cc1cccc2ccccc12)NC[C@H](O)c1cc(O)cc(O)c1.O=C(O)/C=C/C(=O)O [(R,S)-5, (R,S)-(−)-5-{1-hydroxy-2-[1-methyl-2-(1-naphthyl)ethylamino]ethyl}-1,3-benzenediol fumarate]
[1]
  AUC: 1950 ng·h/mL
  Vd: 2.2 L
  clearance: 12.7 mL/min
  half-life: 18.1 min
[2]
  concentration at 5 min: 2520 ng/mL
  concentration at 15 min: 850 ng/mL
  concentration at 30 min: 490 ng/mL
  concentration at 60 min: 360 ng/mL
  concentration at 120 min: 250 ng/mL
  concentration at 360 min: 80 ng/mL
male, Sprague-Dawley, plasma, iv, 5 mg/kg, Individual plasma concentration, IV 5 mg/kg, 240 min, individual rats
  concentration at 240 min: 110 ng/mL
male, Sprague-Dawley, plasma, iv, 5 mg/kg, Individual plasma concentration, IV 5 mg/kg, 300 min, individual rats
  concentration at 300 min: 100 ng/mL
[3]
  concentration at 5 min: 2110 ng/mL
  concentration at 15 min: 680 ng/mL
  concentration at 30 min: 430 ng/mL
  concentration at 60 min: 340 ng/mL
  concentration at 120 min: 240 ng/mL
  concentration at 360 min: 90 ng/mL
male, Sprague-Dawley, plasma, iv, 5 mg/kg, Plasma concentration, Average, IV 5 mg/kg, 240 min
  concentration at 240 min: 120 ng/mL
male, Sprague-Dawley, plasma, iv, 5 mg/kg, Plasma concentration, Average, IV 5 mg/kg, 300 min
  concentration at 300 min: 110 ng/mL
IV 5 mg/kg
  K12: 0.1213 min⁻¹
  K21: 0.0214 min⁻¹
IV 5 mg/kg, 240 min, individual rats
  Individual plasma concentration: 0.11 ug/ml (2×) and 0.13 ug/ml (2×)
IV 5 mg/kg, 300 min, individual rats
  Individual plasma concentration: 0.11 µg/mL
IV 5 mg/kg, central compartment
  V1: 330.83 mL
IV 5 mg/kg, elimination rate
  K10: 0.0383 min⁻¹
IV 5 mg/kg, tissue compartment
  V2: 1872.92 mL
[4]
  Alpha: 0.1764 min⁻¹
  Beta: 0.0046 min⁻¹
IV 5 mg/kg, two-compartment open model, zero time intercept alpha phase
  A: 4.0365 µg/mL
IV 5 mg/kg, zero time intercept beta phase
  B: 0.4372 µg/mL
